Results published in patent US10668051B2, “Modulators of calcium release-activated calcium channel” (Rhizen Pharmaceuticals SA, priority 2009, dated 2020).
Structures can show the parent of a compound that is named as a salt.

What follows are molecules tested against CRAC channels (Homo sapiens (Human), UniProt Q96D31) (assay: In-vitro CRAC channel inhibition assay in Jurkat cells (thapsigargin-induced calcium influx)).
Type: cell-based
Method: 1A. In-Vitro CRAC Channel Inhibition Assay in Jurkat Cells
Plate is incubated at 37° C./5% CO2 for 30 min followed by further 15 min incubation at room temperature. Test compounds (DMSO stocks diluted in Ca^2+ and Mg^2+ free Hanks buffer) at desired concentrations were added to the wells and incubated for 15 min. Thapsigargin (1 μM final concentration) was added to the wells and incubated for 15 min to inhibit the Sarco-endoplasmic reticulum Ca^2+ ATPase pump thereby depleting endoplasmic calcium and raising cytosolic calcium concentrations. Store-operated calcium entry was initiated by adding extracellular Ca^2+ to a final concentration of 1.8 mM. Fluorescence was monitored over 5 min on a plate reader (BMG Labtech., Germany) with excitation at 485 nm and; an emission wavelength at 520 nm. Data were analyzed using GraphPad Prism. IC50 for each compound was determined based on the percent inhibition of thapsigargin-induced calcium influx into cells.

CRAC channels, sequence (Q96D31 whole entry): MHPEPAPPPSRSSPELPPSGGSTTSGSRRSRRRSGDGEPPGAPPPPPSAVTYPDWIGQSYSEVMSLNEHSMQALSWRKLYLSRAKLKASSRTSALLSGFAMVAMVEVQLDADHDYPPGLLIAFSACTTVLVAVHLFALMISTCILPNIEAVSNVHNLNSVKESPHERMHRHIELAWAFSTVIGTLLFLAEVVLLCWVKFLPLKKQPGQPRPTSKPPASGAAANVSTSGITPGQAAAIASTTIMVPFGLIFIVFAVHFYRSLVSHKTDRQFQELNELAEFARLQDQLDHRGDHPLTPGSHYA

inhibition at 1 µM [%] | Structure (SMILES) | % inhibition (1 uM) [%]
40.5 | Cc1ncncc1C(=O)Nc1ccc(-n2nc(C(F)(F)F)c(Cl)c2C2CC2)c(F)c1 [Example 119, N-{4-[4-chloro-5-cyclopropyl-3-(trifluoromethyl)-1H-pyrazol-1-yl]-3-fluorophenyl}-4-methylpyrimidine-5-carboxamide] | –
56.1 | O=C(Cc1ccccn1)Nc1ccc(-n2nc(C(F)(F)F)c(Cl)c2C2CC2)cc1 [Example 81, N-{4-[4-chloro-5-cyclopropyl-3-(trifluoromethyl)-1H-pyrazol-1-yl]phenyl}-2-(pyridin-2-yl)acetamide hydrochloride] | –
76.6 | Cc1noc(C)c1C(=O)Nc1ccc(-n2nc(C(F)(F)F)cc2C2CC2)c(F)c1 [Example 85, N-{4-[5-cyclopropyl-3-(trifluoromethyl)-1H-pyrazol-1-yl]-3-nuorophenyl}-3,5-dimethylisoxazole-4-carboxamide] | –
100 | Cc1ncsc1CNc1ccc(-n2nc(C(F)(F)F)cc2C2CC2)cc1 [Example 74, 4-[5-cyclopropyl-3-(trifluoromethyl)-1H-pyrazol-1-yl]-N-[(4-methylthiazol-5-yl)methyl]aniline] | –
39.1 | CS(=O)(=O)c1cccc(C(=O)Nc2ccc(-n3nc(C(F)(F)F)cc3C3CC3)cc2)c1 [Example 63, N-{4-[5-cyclopropyl-3-(trifluoromethyl)-1H-pyrazol-1-yl]phenyl}-3-(methylsulfonyl)benzamide] | –
52.7 | Cc1nnsc1C(=O)Nc1ccc(-n2nc(C3CC3)cc2C2CC2)nc1 [Example 38, N-[6-(3,5-dicyclopropyl-1H-pyrazol-1-yl)pyridin-3-yl]-4-methyl-1,2,3-thiadiazole-5-carboxamide hydrochloride] | –
100 | Cc1nnsc1C(=O)Nc1ccc(-n2nc(C(F)(F)F)c(Cl)c2C2CC2)c(F)c1 [Example 95, N-{4-[4-chloro-5-cyclopropyl-3-(trifluoromethyl)-1H-pyrazol-1-yl]-3-fluorophenyl}-4-methyl-1,2,3-thiadiazole-5-carboxamide] | –
73.5 | O=C(Cc1ccccc1)Nc1ccc(-n2nc(C3CC3)cc2C2CC2)cc1 [Example 19, N-[4-(3,5-dicyclopropyl-1H-pyrazol-1-yl)phenyl]-2-phenylacetamide] | –
86.2 | O=C(Nc1cnc(-n2nc(C(F)(F)F)cc2C2CC2)nc1)c1c(F)cccc1F [Example 124, N-{2-[5-cyclopropyl-3-(trifluoromethyl)-1H-pyrazol-1-yl]pyrimidin-5-yl}-2,6-difluorobenzamide] | –
23.1 | O=C(Nc1cccc(F)c1F)c1ccc(-n2nc(C(F)(F)F)cc2C2CC2)nc1 [Example 121, 6-[5-cyclopropyl-3-(trifluoromethyl)-1H-pyrazol-1-yl]-N-(2,3-difluorophenyl)nicotinamide] | –
97 | Cc1ncncc1NC(=O)Nc1ccc(-n2nc(C(F)(F)F)cc2C2CC2)c(F)c1 [Example 97, 1-{4-[5-cyclopropyl-3-(trifluoromethyl)-1H-pyrazol-1-yl]-3-fluorophenyl}-3-(4-methylpyrimidin-5-yl)urea] | –
87.5 | O=C(Nc1ccc(-n2nc(C3CC3)cc2C2CC2)cc1)c1c(Cl)cncc1Cl [Example 17, 3,5-dichloro-N-(4-(3,5-dicyclopropyl-1H-pyrazol-1-yl)phenyl)isonicotinamide] | –
100 | O=C(Nc1ccc(-n2nc(C(F)(F)F)cc2C2CC2)cc1)c1c(F)cccc1F [Example 62, N-{4-[5-cyclopropyl-3-(trifluoromethyl)-1H-pyrazol-1-yl]phenyl}-2,6-difluorobenzamide] | –
100 | Cc1ncsc1C(=O)Nc1ccc(-n2nc(C3CC3)cc2C2CC2)c(F)c1 [Example 29, N-[4-(3,5-dicyclopropyl-1H-pyrazol-1-yl)-3-fluorophenyl]-4-methylthiazole-5-carboxamide] | –
100 | O=C(Nc1ccc(-n2nc(C(F)(F)F)cc2C2CC2)nc1)c1ccncc1 [Example 113, N-{6-[5-cyclopropyl-3-(trifluoromethyl)-1H-pyrazol-1-yl]pyridin-3-yl}isonicotinamide hydrochloride] | –
25.9 | O=C(Nc1ccc(-n2nc(C3CC3)cc2C2CC2)cc1)c1cccnc1 [Example 14, N-[4-(3,5-dicyclopropyl-1H-pyrazol-1-yl)phenyl]nicotinamide hydrochloride] | –
19.4 | Cc1noc(C)c1C(=O)Nc1ccc(-n2nc(C(F)(F)F)cc2C2CC2)nc1 [Example 103, N-{6-[5-cyclopropyl-3-(trifluoromethyl)-1H-pyrazol-1-yl]pyridin-3-yl}-3,5-dimethylisoxazole-4-carboxamide] | –
72.2 | Cc1nc(C)c(C(=O)Nc2ccc(-n3nc(C4CC4)cc3C3CC3)cc2)s1 [Example 3, N-[4-(3,5-dicyclopropyl-1H-pyrazol-1-yl)phenyl]-2,4-dimethylthiazole-5-carboxamide] | –

inhibition at 1 µM [%] | Structure (SMILES) | % inhibition (1 uM) [%]
0.26 | O=C(Nc1ccc(-n2nc(C3CC3)cc2C2CC2)nc1)c1cccnc1 [Example 46, N-[6-(3,5-dicyclopropyl-1H-pyrazol-1-yl)pyridin-3-yl]nicotinamide dihydrochloride] | –
26.2 | Cc1ccccc1NC(=O)c1ccc(-n2nc(C3CC3)cc2C2CC2)nc1 [Example 42, 6-(3,5-dicyclopropyl-1H-pyrazol-1-yl)-N-o-tolylnicotinamide] | –
18.6 | Cc1ncncc1NC(=O)c1ccc(-n2nc(C(F)(F)F)cc2C2CC2)c(F)c1 [Example 134, 4-[5-cyclopropyl-3-(trifluoromethyl)-1H-pyrazol-1-yl]-3-fluoro-N-(4-methylpyrimidin-5-yl)benzamide] | –
100 | O=C(Nc1ccc(-n2nc(C(F)(F)F)cc2C2CC2)c(F)c1)c1cccnc1 [Example 89, N-{4-[5-cyclopropyl-3-(trifluoromethyl)-1H-pyrazol-1-yl]-3-fluorophenyl}nicotinamide hydrochloride] | –
45.4 | Cc1ncncc1C(=O)N(C)c1ccc(-n2nc(C(F)(F)F)cc2C2CC2)c(F)c1 [Example 94, N-{4-[5-cyclopropyl-3-(trifluoromethyl)-1H-pyrazol-1-yl]-3-fluorophenyl}-N,4-dimethylpyrimidine-5-carboxamide] | –
68.2 | Cc1ncncc1C(=O)Nc1ccc(-n2nc(C3CC3)cc2C2CC2)c(F)c1 [Example 36, N-[4-(3,5-dicyclopropyl-1H-pyrazol-1-yl)-3-fluorophenyl]-4-methylpyrimidine-5-carboxamide] | –
34.9 | Cc1ncsc1C(=O)Nc1ccc(-n2nc(C(F)(F)F)cc2C2CC2)nc1 [Example 102, N-{6-[5-cyclopropyl-3-(trifluoromethyl)-1H-pyrazol-1-yl]pyridin-3-yl}-4-methylthiazole-5-carboxamide hydrochloride] | –
53.8 | O=C(Cc1cccnc1)Nc1ccc(-n2nc(C3CC3)cc2C2CC2)cc1 [Example 23, N-[4-(3,5-dicyclopropyl-1H-pyrazol-1-yl)phenyl]-2-(pyridin-3-yl)acetamide hydrochloride] | –
97 | O=C(Nc1ccc(-n2nc(C(F)(F)F)cc2C2CC2)nc1)c1cccc(F)c1F [Example 107, N-{6-[5-cyclopropyl-3-(trifluoromethyl)-1H-pyrazol-1-yl]pyridin-3-yl}-2,3-difluorobenzamide] | –
6.18 | O=C(Nc1ccc(-n2nc(C(F)(F)F)cc2C2CC2)nc1)c1ccccn1 [Example 109, N-{6-[5-cyclopropyl-3-(trifluoromethyl)-1H-pyrazol-1-yl]pyridin-3-yl}picolinamide] | –
78.4 | Cc1cccnc1C(=O)Nc1ccc(-n2nc(C(F)(F)F)cc2C2CC2)nc1 [Example 110, N-{6-[5-cyclopropyl-3-(trifluoromethyl)-1H-pyrazol-1-yl]pyridin-3-yl}-3-methylpicolinamide] | –
– | Cl.O=C(Nc1ccc(-n2nc(C3CC3)cc2C2CC2)c(F)c1)c1ccncc1 [Example 35, N-[4-(3,5-dicyclopropyl-1H-pyrazol-1-yl)-3-fluorophenyl]isonicotinamde hydrochloride] | 100
41.3 | Cc1ncsc1C(=O)Nc1ccc(-n2nc(C3CC3)cc2C2CC2)nc1 [Example 39, N-[6-(3,5-dicyclopropyl-1H-pyrazol-1-yl)pyridin-3-yl]-4-methylthiazole-5-carboxamide hydrochloride] | –
51.3 | O=C(Nc1ccc(-n2nc(C(F)(F)F)cc2C2CC2)nc1)c1c(Cl)cncc1Cl [Example 115, 3,5-dichloro-N-{6-[5-cyclopropyl-3-(trifluoromethyl)-1H-pyrazol-1-yl]pyridin-3-yl}isonicotmamide] | –
56.2 | O=C(Nc1cccc(F)c1F)c1ccc(-n2nc(C(F)(F)F)cc2C2CC2)c(F)c1 [Example 99, 4-[5-cyclopropyl-3-(trifluoromethyl)-1H-pyrazol-1-yl]-N-(2,3-difluorophenyl)-3-fluorobenzamide] | –
92.3 | Cc1ncsc1NC(=O)Nc1ccc(-n2nc(C(F)(F)F)cc2C2CC2)cc1 [Example 76, 1-{4-[5-cyclopropyl-3-(trifluoromethyl)-1H-pyrazol-1-yl]phenyl}-3-(4-methylthiazol-5-yl)urea] | –
44 | Cc1ncncc1NC(=O)Nc1ccc(-n2nc(C(F)(F)F)cc2C2CC2)cc1 [Example 77, 1-{4-[5-cyclopropyl-3-(trifluoromethyl)-1H-pyrazol-1-yl]phenyl}-3-(4-methylpyrimidin-5-yl)urea] | –
0 | Cc1noc(C)c1C(=O)Nc1ccc(-n2nc(C3CC3)cc2C2CC2)nc1 [Example 41, N-[6-(3,5-dicyclopropyl-1H-pyrazol-1-yl)pyridin-3-yl]-3,5-dimethylisoxazole-4-carboxamide] | –
